Assay results: PMC2646632 (ACS chemical biology, 2008)

Tested on: mouse SMN mRNA
Test: Real-time PCR of endogenous SMN mRNA in NSC34 cells
Format: cell-based
Conditions: trichostatin A at 100 nM

Compound	Increase of SMN mRNA
Nc1nc(N)c2c(OCC3CCN(Cc4ccccc4F)CC3)cccc2n1 [D156844]	two-fold
CC(/C=C/C(=O)NO)=C\[C@@H](C)C(=O)c1ccc(N(C)C)cc1 [trichostatin A]	two-fold
